Experimental data published in ChEMBL document CHEMBL1201862, “PubChem BioAssay data set” (2004).
The source made the active and inactive calls. Cut-off read from the data, not from the text of the source: actives have a measured IC50 and inactives only a lower limit.

Biological target: Envelope glycoprotein gp160 (Human immunodeficiency virus 1, UniProt Q6QLK5)
Experiment: cell-free HIV fusion peptide-binding blockers – biochemical, uHTS, fluorescence dequenching, […] (AID 1986)

Chain of Envelope glycoprotein gp160 (Q6QLK5 whole entry, the tested form may be a part): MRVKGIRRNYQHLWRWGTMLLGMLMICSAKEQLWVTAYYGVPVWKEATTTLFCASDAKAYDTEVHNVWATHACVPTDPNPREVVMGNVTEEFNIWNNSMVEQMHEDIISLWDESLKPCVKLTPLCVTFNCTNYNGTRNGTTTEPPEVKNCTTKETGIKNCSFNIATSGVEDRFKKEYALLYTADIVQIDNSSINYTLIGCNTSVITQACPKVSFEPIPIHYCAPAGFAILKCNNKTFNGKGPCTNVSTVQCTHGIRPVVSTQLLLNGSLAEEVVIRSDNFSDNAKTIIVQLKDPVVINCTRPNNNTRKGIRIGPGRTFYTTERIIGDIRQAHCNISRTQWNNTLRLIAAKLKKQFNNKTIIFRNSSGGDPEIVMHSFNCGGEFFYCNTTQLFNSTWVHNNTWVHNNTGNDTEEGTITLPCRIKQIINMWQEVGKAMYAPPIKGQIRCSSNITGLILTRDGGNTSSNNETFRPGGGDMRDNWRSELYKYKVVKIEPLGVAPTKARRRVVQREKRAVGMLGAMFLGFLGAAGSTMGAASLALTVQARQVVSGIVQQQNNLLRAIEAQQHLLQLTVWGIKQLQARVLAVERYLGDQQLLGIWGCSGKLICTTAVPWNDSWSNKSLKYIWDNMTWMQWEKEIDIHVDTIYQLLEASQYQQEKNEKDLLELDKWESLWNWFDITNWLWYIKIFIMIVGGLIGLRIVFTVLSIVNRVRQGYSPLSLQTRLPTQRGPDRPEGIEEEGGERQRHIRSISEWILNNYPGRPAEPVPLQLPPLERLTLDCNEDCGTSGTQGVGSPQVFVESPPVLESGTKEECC

CCOC(=O)c1sc(N2C(=O)C(O)=C(C(=O)c3ccco3)C2c2cccc([N+](=O)[O-])c2)nc1C (stereo unspecified)
IC50: 19 µM (active)

O=C(O)CN1C(=O)/C(=C\c2cc(Br)ccc2OCc2ccc(Cl)cc2)SC1=S
IC50: 14.3 µM (active)

COc1ccccc1/C=C1\SC(=S)N(CCC(=O)Nc2ccc(C(=O)O)c(O)c2)C1=O
IC50: 14.5 µM (active)

COc1cc(/C=C2/C(=O)NN(c3ccc(Cl)cc3)C2=O)ccc1OC(=O)c1ccco1
IC50: 11.8 µM (active)

Cc1ccccc1N/N=C/c1sc(=O)n(Cc2cccc(C(=O)O)c2)c1Cl
IC50: 15.6 µM (active)

O=C(O)CCn1cc(/C=C/C(=O)c2ccc(Cl)cc2)c(-c2ccc(Br)cc2)n1
IC50: 21.4 µM (active)
